According to US20220153746A1, “NITROGEN OXIDE-DONATING PDE-5 AND/OR PDE-6 INHIBITOR COMPOUNDS, AND USES THEREOF” (ILDONG PHARMACEUTICAL CO., LTD., priority 2020, published 2022):
Like-named read-outs stand apart in the source and are kept apart here.

Assay: PK Phase (Group 2): plasma concentrations and pharmacokinetics of Compound 18 and its metabolite Compound 4 after once daily ocular instillation of Compound 18 nanosuspension for 7 days
Type: in vivo, New Zealand white rabbits
Conditions: for Cmax / Tmax / AUC(0-t) / half-life: male, New Zealand white, rabbit, plasma, topical or ocular, 0.8 mg/kg; for AUC(0-t): read-out: AUC0-24; for Day 1 Compound 4 Plasma Concentration / Day 7 Compound 4 Plasma Concentration: metabolite after Compound 18 dosing
Text: This example illustrates the procedures and results for the levels of Compound 18 and its metabolite Compound 4 in plasma and ocular tissues of normotensive rabbits following ocular instillation of Compound 18 once daily for 7 consecutive days.
Twenty five (25) male New Zealand white rabbits were divided into 5 groups of varying amounts of animals per group.
The Test article, Compound 18 was formulated as a 2% nanosuspension in DI water containing 0.2% PS80 (polyoxyethylenesorbitan, monooleate (Tween 80)) and 0.4% HPMC (hydroxypropylmethylcellulose) at pH 6.77. Referred to herein as “Compound 18 nanosuspension.”
The study consisted of three groups (Groups 1-3) of 19 male rabbits (NZW) that underwent once daily morning ocular installation (1 eyedrop) for 7 consecutive days (Day 0-6). Groups 4-5 each consisted of 3 male rabbits (NZW) that were not dosed.
Blood samples (1 mL) were collected from the jugular vein at the intervals set out below for each group. The samples were then inverted several times following collection and held on wet ice until centrifuged. Samples were centrifuged within 60 minutes of collection under refrigeration (set at 5° C. for 10 minutes at 2000 g. […]
Plasma and tissue samples from treated animals (Groups 1-3) were analyzed for Compound 18 and its metabolite Compound 4 concentrations by LC-MS/MS.
Pharmacokinetic analysis was conducted using WinNonlin Version 6.2.1 (Pharsight, Mountain View, Calif.), operating as a validated software system. Noncompartmental analysis was conducted using the extravascular administration model for ocular instillation dosing.
The peak plasma concentration, time to achieve peak plasma concentration, half-life, and area under the plasma concentration-time curve (Cmax, Tmax, T1/2, and AUC) were calculated from the PK phase individual animal plasma concentrations for each sampling time/dose group for Compound 18 and its metabolite Compound 4.
BA Assay: Quantitation Range 0.05 to 100 ng/mL for Compound 18, 0.15 to 100 ng/mL for Compound 4.
Plasma calibration standards (PLSTD-A) with Compound 18 concentrations ranging from 0.0500 to 100 ng/mL were prepared by spiking control rabbit plasma with appropriate calibration curve spiking solutions (SS-A). PLQC-A samples with concentrations of 0.150, 5.00, 50.0, and 80.0 ng/mL were prepared by spiking control rabbit plasma with appropriate SS-A-QC spiking solutions.
Plasma calibration standards (PLSTD-B) with Compound 4 concentrations ranging from 0.150 to 100 ng/mL were prepared by spiking control rabbit plasma with appropriate calibration curve spiking solutions (SS-B). PLQC-B samples with concentrations of 0.450, 5.00, 50.0, and 80.0 ng/mL were prepared by spiking control rabbit plasma with appropriate SS-B-QC spiking solutions. PLQC-B-Dil samples at 800 ng/mL were prepared by spiking control rabbit plasma with the SS-B-QC-Dil spiking solution at 16,000 ng/mL, and then diluted 20× with control rabbit plasma prior to extraction.
1. Thaw plasma standards, plasma QC samples, ocular tissue QC samples, incurred plasma samples and ocular tissue samples (AH/VH) (if applicable) on wet ice. Control plasma can be thawed in tepid water. Vortex before taking aliquots.
2. Pipet 50 μL of water for Reagent Blank, 50 μL of control plasma for Double Blank and Blank, 50 μL of pre-spiked plasma for Standards and QC samples, 50 μL of incurred plasma samples (if applicable) into a 96 well plate.
5. Add 200 μL of working internal standard (WIS) solution to all remaining samples.
6. Seal the plate and vortex for approximately 5 minutes. Centrifuge the plate at 3500 rpm for 10 minutes at ˜4° C.
7. Transfer ˜200 μL of each sample supernatant into the appropriate wells of a 96 well plate. Submit for LC MS/MS analysis.
A total of 25 rabbits were used for this study, including 19 treated rabbits and 6 control rabbits. […]

[1] = Day 1, Compound 18 0.8 mg/kg ocular instillation, Mean, n=4
[2] = Day 1, Compound 18 0.8 mg/kg ocular instillation, animal 207664
[3] = Day 1, Compound 18 0.8 mg/kg ocular instillation, animal 207665
[4] = Day 1, Compound 18 0.8 mg/kg ocular instillation, animal 207666
[5] = Day 1, Compound 18 0.8 mg/kg ocular instillation, animal 207667
[6] = Day 7, Compound 18 0.8 mg/kg ocular instillation, Mean, n=4
[7] = Day 7, Compound 18 0.8 mg/kg ocular instillation, animal 207664
[8] = Day 7, Compound 18 0.8 mg/kg ocular instillation, animal 207665
[9] = Day 7, Compound 18 0.8 mg/kg ocular instillation, animal 207666
[10] = Day 7, Compound 18 0.8 mg/kg ocular instillation, animal 207667

CCCc1nn(C)c2c(=O)[nH]c(-c3cc(S(=O)(=O)N4CC(CCCO)C4)ccc3OCC)nc12 [Compound 4, 5-(2-ethoxy-5-((3-(3-hydroxypropyl)azetidin-1-yl)sulfonyl)phenyl)-1-methyl-3-propyl-1,6-dihydro-7H-pyrazolo[4,3-d]pyrimidin-7-one]
Cmax [1]: 0.944 ± 0.565 ng/mL
Tmax [1]: 30 min
AUC(0-t) [1]: 1.14 ± 0.957 ng·h/mL
Cmax [2]: 0.497 ng/mL
Tmax [2]: 30 min
AUC(0-t) [2]: 0.575 ng·h/mL
Cmax [3]: 0.527 ng/mL
Tmax [3]: 30 min
half-life (Day 1, Compound 18 0.8 mg/kg ocular instillation, animal 207665 (one rabbit reportable)): 24.8 min
AUC(0-t) [3]: 0.321 ng·h/mL
Cmax [4]: 1.7 ng/mL
Tmax [4]: 30 min
AUC(0-t) [4]: 2.46 ng·h/mL
Cmax [5]: 1.05 ng/mL
Tmax [5]: 30 min
AUC(0-t) [5]: 1.18 ng·h/mL
half-life (Day 7, Compound 18 0.8 mg/kg ocular instillation, Mean, n=2): 79.2 ± 42.1 min
Cmax [6]: 0.963 ± 0.17 ng/mL
Tmax [6]: 45 ± 17.4 min
AUC(0-t) [6]: 1.71 ± 0.416 ng·h/mL
Cmax [7]: 0.851 ng/mL
Tmax [7]: 30 min
AUC(0-t) [7]: 1.13 ng·h/mL
Cmax [8]: 0.938 ng/mL
Tmax [8]: 30 min
half-life [8]: 49.4 min
AUC(0-t) [8]: 1.72 ng·h/mL
Cmax [9]: 0.851 ng/mL
Tmax [9]: 60 min
half-life [9]: 109 min
AUC(0-t) [9]: 1.92 ng·h/mL
Cmax [10]: 1.21 ng/mL
Tmax [10]: 60 min
AUC(0-t) [10]: 2.08 ng·h/mL
Day 1 Compound 4 Plasma Concentration (2 h, animal 207665): BQL (BQL = Below lower limit of quantitation (0.0500 ng/mL for Compound 18 and 0.150 ng/mL for Compound 4))
Day 1 Compound 4 Plasma Concentration (4 h, animal 207664): BQL (BQL = Below lower limit of quantitation (0.0500 ng/mL for Compound 18 and 0.150 ng/mL for Compound 4))
Day 7 Compound 4 Plasma Concentration (4 h, animal 207664): BQL (BQL = Below lower limit of quantitation (0.0500 ng/mL for Compound 18 and 0.150 ng/mL for Compound 4))
Day 1 Compound 4 Plasma Concentration (4 h, animal 207665): BQL (BQL = Below lower limit of quantitation (0.0500 ng/mL for Compound 18 and 0.150 ng/mL for Compound 4))
Day 7 Compound 4 Plasma Concentration (4 h, animal 207665): BQL (BQL = Below lower limit of quantitation (0.0500 ng/mL for Compound 18 and 0.150 ng/mL for Compound 4))
Day 1 Compound 4 Plasma Concentration (4 h, animal 207667): BQL (BQL = Below lower limit of quantitation (0.0500 ng/mL for Compound 18 and 0.150 ng/mL for Compound 4))
Day 1 Compound 4 Plasma Concentration (8 h, animal 207664): BQL (BQL = Below lower limit of quantitation (0.0500 ng/mL for Compound 18 and 0.150 ng/mL for Compound 4))
Day 7 Compound 4 Plasma Concentration (8 h, animal 207664): BQL (BQL = Below lower limit of quantitation (0.0500 ng/mL for Compound 18 and 0.150 ng/mL for Compound 4))
Day 1 Compound 4 Plasma Concentration (8 h, animal 207665): BQL (BQL = Below lower limit of quantitation (0.0500 ng/mL for Compound 18 and 0.150 ng/mL for Compound 4))
Day 1 Compound 4 Plasma Concentration (8 h, animal 207666): BQL (BQL = Below lower limit of quantitation (0.0500 ng/mL for Compound 18 and 0.150 ng/mL for Compound 4))
Day 7 Compound 4 Plasma Concentration (8 h, animal 207666): BQL (BQL = Below lower limit of quantitation (0.0500 ng/mL for Compound 18 and 0.150 ng/mL for Compound 4))
Day 1 Compound 4 Plasma Concentration (8 h, animal 207667): BQL (BQL = Below lower limit of quantitation (0.0500 ng/mL for Compound 18 and 0.150 ng/mL for Compound 4))
Day 7 Compound 4 Plasma Concentration (8 h, animal 207667): BQL (BQL = Below lower limit of quantitation (0.0500 ng/mL for Compound 18 and 0.150 ng/mL for Compound 4))
Day 1 Compound 4 Plasma Concentration (24 h, animal 207664): BQL (BQL = Below lower limit of quantitation (0.0500 ng/mL for Compound 18 and 0.150 ng/mL for Compound 4))
Day 7 Compound 4 Plasma Concentration (24 h, animal 207664): BQL (BQL = Below lower limit of quantitation (0.0500 ng/mL for Compound 18 and 0.150 ng/mL for Compound 4))
Day 1 Compound 4 Plasma Concentration (24 h, animal 207665): BQL (BQL = Below lower limit of quantitation (0.0500 ng/mL for Compound 18 and 0.150 ng/mL for Compound 4))
Day 7 Compound 4 Plasma Concentration (24 h, animal 207665): BQL (BQL = Below lower limit of quantitation (0.0500 ng/mL for Compound 18 and 0.150 ng/mL for Compound 4))
Day 1 Compound 4 Plasma Concentration (24 h, animal 207666): BQL (BQL = Below lower limit of quantitation (0.0500 ng/mL for Compound 18 and 0.150 ng/mL for Compound 4))
Day 7 Compound 4 Plasma Concentration (24 h, animal 207666): BQL (BQL = Below lower limit of quantitation (0.0500 ng/mL for Compound 18 and 0.150 ng/mL for Compound 4))
Day 1 Compound 4 Plasma Concentration (24 h, animal 207667): BQL (BQL = Below lower limit of quantitation (0.0500 ng/mL for Compound 18 and 0.150 ng/mL for Compound 4))
Day 7 Compound 4 Plasma Concentration (24 h, animal 207667): BQL (BQL = Below lower limit of quantitation (0.0500 ng/mL for Compound 18 and 0.150 ng/mL for Compound 4))
